This is an account of results in patent US10662184B2, “Benzenesulfonamide compounds and their use as therapeutic agents” (Xenon Pharmaceuticals Inc., priority 2016, dated 2020).

In one assay the target is human NaV1.5 (Homo sapiens (Human), UniProt Q14524). Put plainly: cell-based.
A further assay concerns the target human NaV1.1 (Homo sapiens (Human), UniProt P35498). Put plainly: Sodium Influx Assay (Flux), NaV1.1. The class given is cell-based. Conditions: Trex HEK293 cells, ANG2 dye; arithmetic mean.
The next assay concerns the target human NaV1.1 (SCN1A) (Homo sapiens (Human), UniProt P35498). Put plainly: Electrophysiological Assay (EP, patch voltage clamp), NaV1.1. The class given is cell-based. Particulars: HEK-293 cells, whole-cell patch clamp, inactivated state; arithmetic mean. On the procedure: Sodium currents were measured using the patch clamp technique in the whole-cell configuration using either a PatchXpress automated voltage clamp or manually using an Axopatch 200B (Axon Instruments) or Model 2400 (A-M systems) amplifier. […] In some studies, the external sodium was reduced by equimolar replacement with choline. […] All recordings were performed at ambient temperature in a bath chamber with a volume of 150 μL. Control sodium currents were measured in 0.5% DMSO. Controls and representative compounds of the invention were applied to the recording chamber through a 4-pinch or 8-pinch valve bath perfusion system manufactured by ALA Scientific Instruments.
Series resistance compensation was applied (60-80%). […] All statistics in this study are given as mean±SD.
The membrane potential was maintained at a voltage where inactivation of the channel is complete. The voltage is then stepped back to a very negative (Vhold=−150 mV) voltage for 20 ms and then a test pulse is applied to quantify the compound block. […] The percent decrease in sodium current following wash-on of compound was taken as the percent block of sodium channels.
In general terms: In patch-clamp work, channel activity is measured electrically.

A further assay addresses human NaV1.6 (Homo sapiens (Human), UniProt Q9UQD0). Put plainly: Sodium Influx Assay (Flux), NaV1.6.
Another assay has as its target human NaV1.6 (SCN8A) (Homo sapiens (Human), UniProt Q9UQD0). Description: Electrophysiological Assay (EP, patch voltage clamp), NaV1.6. The class given is cell-based. Conditions: HEK-293 cells, whole-cell patch clamp, inactivated state; arithmetic mean. From the text: Patch voltage clamp electrophysiology allows for the direct measurement and quantification of block of voltage-gated sodium channels (Nav's), and allows the determination of the time- and voltage-dependence of block which has been interpreted as differential binding to the resting, open, and inactivated states of the sodium channel (Hille, B., Journal of General Physiology (1977), 69: 497-515).
Nav1.1, Nav1.5 and Nav1.6 cDNAs (NM_001165964 (SCN1A), NM_000335 (SCN5A) and NM_014191 (SCN8A), respectively) were stably expressed in HEK-293 cells.
Sodium currents were measured using the patch clamp technique in the whole-cell configuration using either a PatchXpress automated voltage clamp or manually using an Axopatch 200B (Axon Instruments) or Model 2400 (A-M systems) amplifier. […] Control sodium currents were measured in 0.5% DMSO. […]
Currents were recorded at 40 kHz sampling frequency, filtered at […], and stored using a Digidata-1322A analogue/digital interface with the pClamp software (Axon Instruments). […]
The membrane potential was maintained at a voltage where inactivation of the channel is complete. The voltage is then stepped back to a very negative (Vhold=−150 mV) voltage for 20 ms and then a test pulse is applied to quantify the compound block. […]

[1] abbreviates: read-out: Flux NaV1.6 IC50, Trex HEK293 cells, ANG2 dye, arithmetic mean.

Where two headings read alike, the source gives them in different places.

human NaV1.5, sequence (Q14524 other isoform, or with tags, fused parts or gaps): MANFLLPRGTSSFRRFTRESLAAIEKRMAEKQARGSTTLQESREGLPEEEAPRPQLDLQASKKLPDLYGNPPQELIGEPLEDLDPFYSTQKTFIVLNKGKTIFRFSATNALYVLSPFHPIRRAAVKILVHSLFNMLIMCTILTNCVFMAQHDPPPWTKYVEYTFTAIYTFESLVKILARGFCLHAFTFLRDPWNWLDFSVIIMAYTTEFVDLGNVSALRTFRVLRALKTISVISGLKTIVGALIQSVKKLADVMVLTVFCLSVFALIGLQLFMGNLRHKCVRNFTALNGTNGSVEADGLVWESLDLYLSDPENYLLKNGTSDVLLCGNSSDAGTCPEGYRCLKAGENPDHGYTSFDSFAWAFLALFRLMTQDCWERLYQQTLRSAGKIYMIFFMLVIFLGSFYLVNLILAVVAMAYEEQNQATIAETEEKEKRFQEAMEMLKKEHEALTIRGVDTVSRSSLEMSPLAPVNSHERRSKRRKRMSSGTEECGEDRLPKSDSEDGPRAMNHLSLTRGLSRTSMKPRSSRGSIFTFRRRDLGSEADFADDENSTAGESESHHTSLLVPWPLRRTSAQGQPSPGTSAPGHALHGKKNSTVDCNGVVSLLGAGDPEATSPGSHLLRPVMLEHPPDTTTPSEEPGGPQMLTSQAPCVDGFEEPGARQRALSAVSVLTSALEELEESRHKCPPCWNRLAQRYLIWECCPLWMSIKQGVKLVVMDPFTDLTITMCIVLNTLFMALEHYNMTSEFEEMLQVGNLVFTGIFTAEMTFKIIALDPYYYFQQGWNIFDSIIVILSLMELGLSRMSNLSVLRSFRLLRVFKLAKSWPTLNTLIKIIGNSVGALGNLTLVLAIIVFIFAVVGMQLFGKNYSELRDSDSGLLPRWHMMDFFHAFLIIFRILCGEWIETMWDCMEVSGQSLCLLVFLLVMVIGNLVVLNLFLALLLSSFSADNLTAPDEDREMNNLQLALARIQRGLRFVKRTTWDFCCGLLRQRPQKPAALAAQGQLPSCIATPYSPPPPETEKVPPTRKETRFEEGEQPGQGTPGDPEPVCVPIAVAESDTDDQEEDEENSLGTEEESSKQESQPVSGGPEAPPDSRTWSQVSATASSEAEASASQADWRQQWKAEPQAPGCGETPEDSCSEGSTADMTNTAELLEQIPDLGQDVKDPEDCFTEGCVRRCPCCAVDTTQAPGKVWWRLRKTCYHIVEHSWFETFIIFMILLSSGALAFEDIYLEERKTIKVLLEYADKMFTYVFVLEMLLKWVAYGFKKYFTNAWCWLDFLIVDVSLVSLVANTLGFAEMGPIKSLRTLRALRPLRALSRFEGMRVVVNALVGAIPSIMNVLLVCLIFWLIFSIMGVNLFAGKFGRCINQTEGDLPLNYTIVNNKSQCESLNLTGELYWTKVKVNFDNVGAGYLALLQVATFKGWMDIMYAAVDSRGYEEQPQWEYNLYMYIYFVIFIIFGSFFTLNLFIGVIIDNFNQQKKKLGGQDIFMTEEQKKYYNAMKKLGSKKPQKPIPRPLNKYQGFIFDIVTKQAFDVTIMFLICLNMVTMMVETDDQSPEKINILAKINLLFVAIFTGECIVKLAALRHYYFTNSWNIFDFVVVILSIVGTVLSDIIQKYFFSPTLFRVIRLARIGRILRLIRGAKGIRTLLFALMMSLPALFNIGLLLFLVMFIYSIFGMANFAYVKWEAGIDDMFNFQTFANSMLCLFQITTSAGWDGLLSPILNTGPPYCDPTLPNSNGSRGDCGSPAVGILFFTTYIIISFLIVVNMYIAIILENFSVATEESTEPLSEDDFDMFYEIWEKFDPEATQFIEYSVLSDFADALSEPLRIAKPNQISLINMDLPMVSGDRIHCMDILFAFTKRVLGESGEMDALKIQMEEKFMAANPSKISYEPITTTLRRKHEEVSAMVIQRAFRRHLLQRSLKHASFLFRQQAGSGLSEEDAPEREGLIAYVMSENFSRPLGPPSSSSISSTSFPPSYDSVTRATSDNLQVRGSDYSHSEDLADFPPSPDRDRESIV
human NaV1.6 (SCN8A), sequence (Q9UQD0 whole entry): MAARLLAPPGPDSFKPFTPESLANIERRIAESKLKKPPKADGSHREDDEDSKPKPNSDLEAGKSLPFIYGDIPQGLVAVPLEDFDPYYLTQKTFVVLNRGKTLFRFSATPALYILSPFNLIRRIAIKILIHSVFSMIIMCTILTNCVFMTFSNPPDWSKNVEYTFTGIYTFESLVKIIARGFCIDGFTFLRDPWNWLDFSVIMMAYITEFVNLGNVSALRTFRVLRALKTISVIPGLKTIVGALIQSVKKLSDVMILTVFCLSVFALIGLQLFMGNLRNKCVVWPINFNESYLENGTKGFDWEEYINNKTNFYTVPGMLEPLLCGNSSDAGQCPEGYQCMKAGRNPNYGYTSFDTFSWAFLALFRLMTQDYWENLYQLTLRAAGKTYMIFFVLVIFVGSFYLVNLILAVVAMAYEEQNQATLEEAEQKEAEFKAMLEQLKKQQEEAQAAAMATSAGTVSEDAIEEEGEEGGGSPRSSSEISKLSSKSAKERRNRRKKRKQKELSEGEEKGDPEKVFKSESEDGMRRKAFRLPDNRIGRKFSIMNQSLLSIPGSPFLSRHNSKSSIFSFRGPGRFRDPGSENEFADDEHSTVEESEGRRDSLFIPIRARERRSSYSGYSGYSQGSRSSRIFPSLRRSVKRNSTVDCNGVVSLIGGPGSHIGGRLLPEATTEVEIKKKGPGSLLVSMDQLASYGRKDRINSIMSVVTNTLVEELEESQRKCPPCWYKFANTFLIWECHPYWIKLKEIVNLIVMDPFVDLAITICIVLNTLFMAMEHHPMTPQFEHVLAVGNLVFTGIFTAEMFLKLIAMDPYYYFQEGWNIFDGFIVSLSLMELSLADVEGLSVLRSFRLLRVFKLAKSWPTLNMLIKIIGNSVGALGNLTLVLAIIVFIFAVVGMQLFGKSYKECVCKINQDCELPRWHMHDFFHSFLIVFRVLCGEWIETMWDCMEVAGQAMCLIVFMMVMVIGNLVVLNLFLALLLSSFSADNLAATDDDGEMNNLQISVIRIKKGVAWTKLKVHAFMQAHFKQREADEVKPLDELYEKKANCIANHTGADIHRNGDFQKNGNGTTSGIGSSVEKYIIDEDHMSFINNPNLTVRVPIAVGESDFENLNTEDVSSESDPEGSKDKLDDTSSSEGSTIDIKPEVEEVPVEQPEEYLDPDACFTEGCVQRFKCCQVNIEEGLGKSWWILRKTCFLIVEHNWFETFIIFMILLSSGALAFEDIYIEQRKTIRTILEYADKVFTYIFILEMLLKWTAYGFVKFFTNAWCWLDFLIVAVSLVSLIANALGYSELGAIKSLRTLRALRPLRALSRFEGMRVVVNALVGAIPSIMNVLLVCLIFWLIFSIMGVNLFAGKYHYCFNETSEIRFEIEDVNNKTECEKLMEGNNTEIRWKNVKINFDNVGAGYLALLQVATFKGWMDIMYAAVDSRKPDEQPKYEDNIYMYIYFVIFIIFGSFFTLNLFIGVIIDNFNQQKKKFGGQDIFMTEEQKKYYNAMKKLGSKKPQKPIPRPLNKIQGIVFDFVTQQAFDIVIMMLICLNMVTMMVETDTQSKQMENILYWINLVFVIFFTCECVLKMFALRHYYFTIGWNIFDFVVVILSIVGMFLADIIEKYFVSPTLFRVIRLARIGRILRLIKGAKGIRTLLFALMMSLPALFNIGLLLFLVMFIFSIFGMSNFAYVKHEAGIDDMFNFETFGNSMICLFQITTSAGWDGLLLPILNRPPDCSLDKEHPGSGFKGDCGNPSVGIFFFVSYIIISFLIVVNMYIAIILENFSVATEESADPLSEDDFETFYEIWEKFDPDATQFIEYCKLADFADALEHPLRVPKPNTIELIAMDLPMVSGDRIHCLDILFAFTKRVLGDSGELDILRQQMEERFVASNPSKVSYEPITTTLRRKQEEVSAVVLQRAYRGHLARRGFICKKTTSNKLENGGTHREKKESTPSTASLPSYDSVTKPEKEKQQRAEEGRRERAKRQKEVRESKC

Regarding `C[C@H]1CN(Cc2ccccc2)C[C@@H]1Nc1ccc(S(=O)(=O)Nc2nccs2)cc1Cl` (relative stereo) [Example 74, 4-((trans-1-benzyl-4-methylpyrrolidin-3-yl)amino)-3-chloro-N-(thiazol-2-yl)benzenesulfonamide], the 50% inhibitory concentration (IC50) against human NaV1.5 was 8.67 µM; against human NaV1.1, 1.54 µM; at human NaV1.1 (SCN1A) it was 1.03 µM; against human NaV1.6, 0.167 µM; on human NaV1.6 (SCN8A), 0.025 µM.

As to `C[C@@H]1CN(Cc2ccccc2)C[C@@H]1Nc1ccc(S(=O)(=O)Nc2nccs2)cc1Cl` (relative stereo) [Example 75, 4-((cis-1-benzyl-4-methylpyrrolidin-3-yl)amino)-3-chloro-N-(thiazol-2-yl)benzenesulfonamide], the IC50 against human NaV1.5 stood at 8.99 µM; on human NaV1.1, 4.19 µM; against human NaV1.6, 0.661 µM.

With `C[C@@H]1C[C@@H](Oc2ccc(S(=O)(=O)Nc3nccs3)cc2Cl)CCN1Cc1ccccc1` (relative stereo) [Example 73, 4-((trans-1-benzyl-2-methylpiperidin-4-yl)oxy)-3-chloro-N-(thiazol-2-yl)benzenesulfonamide], the figures for the concentration for half-maximal inhibition (IC50) against human NaV1.5, against human NaV1.1 and on human NaV1.6 were 13.1 µM, 5.85 µM and 1.88 µM, respectively.

As for `C[C@@H]1[C@H](N(C)c2cc(F)c(S(=O)(=O)Nc3cscn3)cc2Cl)CCN1Cc1ccccc1` (racemic) [Example 309, rac-4-(((2R,3R)-1-benzyl-2-methylpyrrolidin-3-yl)(methyl)amino)-5-chloro-2-fluoro-N-(thiazol-4-yl)benzenesulfonamide], the results for the 50% inhibitory concentration (IC50) on human NaV1.1 and on human NaV1.6 (setting [1]) were 8.44 µM and 6.86 µM, respectively.

As for `Cc1cccc(CN2CC[C@H](Oc3ccc(S(=O)(=O)Nc4nccs4)cc3Cl)[C@H](C)C2)c1` (relative stereo) [Example 9A, 3-chloro-4-((cis-3-methyl-1-(3-methylbenzyl)piperidin-4-yl)oxy)-N-(thiazol-2-yl)benzenesulfonamide], on human NaV1.6, it took 1.75 µM to reach half-maximal inhibition (IC50).

For the compound `C[C@@H](c1ccccc1)N1CC[C@H](N(C)c2cc(F)c(S(=O)(=O)Nc3cccc(F)n3)cc2Cl)C1` [Example 43, 2,2,2-trifluoroacetate], the values for the IC50 on human NaV1.5, at human NaV1.1 and against human NaV1.6 were 17.1 µM, 7.87 µM and 1.89 µM, respectively.

Regarding `Cc1cccc(CN2CC[C@@H](Oc3ccc(S(=O)(=O)Nc4nccs4)cc3Cl)[C@H](C)C2)c1` (relative stereo) [Example 9B, 3-chloro-4-((trans-3-methyl-1-(3-methylbenzyl)piperidin-4-yl)oxy)-N-(thiazol-2-yl)benzenesulfonamide], the figures for the 50% inhibitory concentration (IC50) against human NaV1.5 and at human NaV1.6 were 8.75 µM and 0.874 µM, respectively.

Turning to `O=S(=O)(Nc1cscn1)c1ccc(O[C@@H]2C[C@H]3CC[C@@H](C2)N3Cc2cccc(C(F)F)c2)c(Cl)c1` [Example 256, 3-chloro-4-(((1R,3s,5S)-8-(3-(difluoromethyl)benzyl)-8-azabicyclo[3.2.1]octan-3-yl)oxy)-N-(thiazol-4-yl)benzenesulfonamide], the IC50 against human NaV1.1 was determined as 4.41 µM; on human NaV1.6 (setting [1]), 3.31 µM.

In the case of `C[C@H]1C[C@@H](Oc2ccc(S(=O)(=O)Nc3nccs3)cc2Cl)CCN1Cc1ccccc1` (relative stereo) [Example 72, 4-((cis-1-benzyl-2-methylpiperidin-4-yl)oxy)-3-chloro-N-(thiazol-2-yl)benzenesulfonamide], the IC50 against human NaV1.5 worked out at 13.5 µM; against human NaV1.1, 6.81 µM; against human NaV1.6 it was 6.07 µM.

Usually IC50 stands for the concentration at which inhibition is half-maximal.
